{"source": "paper PMC8333425", "about": "“Discovery of a dual Ras and ARF6 inhibitor from a GPCR endocytosis screen” (Nature Communications, 2021)", "type_in_all_cases": "cell-based", "key": {"K-Ras": {"target": "K-Ras (Homo sapiens, UniProt P01116)", "sequence (P01116 1-188 isoform P01116-2)": "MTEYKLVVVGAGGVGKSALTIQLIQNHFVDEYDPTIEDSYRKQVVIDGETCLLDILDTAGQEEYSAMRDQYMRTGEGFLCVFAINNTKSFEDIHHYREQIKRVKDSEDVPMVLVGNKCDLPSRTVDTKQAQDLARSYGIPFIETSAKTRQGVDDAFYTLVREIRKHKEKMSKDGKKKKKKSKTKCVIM", "assay": "Ras BRET sensor in cells overexpressing WT K-Ras and AT1R", "design": "expressed in transfected cells; host or cells: HEK293SL", "text": "Because Tyr32 and Tyr40, located on the switch I domain of Ras, are critical for stabilizing Rasarfin binding through interactions with both the chlorine and isopropyl moiety (Fig. 7a, c), we reasoned that substituting them for Ala residues would negatively impact Rasarfin’s inhibitory action on Ras. […] Because we wanted to assess the inhibitory action of Rasarfin over different Ras subtypes, we mutated the two tyrosine residues to an alanine in K-Ras (Y32A, Y40A, and Y32A/Y40A mutants) within the same Rasarfin binding site found in H-Ras (Lys^5-Thr^74). This domain and residues are perfectly conserved among the Ras family members[44],[45]. WT K-Ras and K-Ras mutants were overexpressed along with AT1R in cells and AngII-mediated activation of Ras was assessed using the Ras BRET sensor (Supplementary Fig. 11a).\nHEK293SL cells were seeded at a density of 7.5 × 10^5 cells per 100-mm dish and 24 h later, transiently transfected as such. For receptor internalization experiments, cells were transfected with 0.12 μg AT1R-RlucII, B2R-RlucII, or β2AR-RlucII and 0.48 μg of either rGFP-CAAX (to assess removal from the PM) or rGFP-FYVE (to assess accumulation in the endosomes). For β-arrestin recruitment assays, cells were transfected with 0.48 μg of receptor-YFP along with 0.12 μg of β-arrestin-RlucII. […] For kinetics of β-arrestin recruitment or β-arrestin binding to receptor and AP-2 experiments, cells were serum starved for 30 min, pretreated with 21 (50 µM) or Barbadin (100 µM) for 30 min, stimulated with 100 nM AngII or 1 µM BK and BRET signals were monitored at indicated times using a Victor X Light plate reader (PerkinElmer). […] The BRET ratio was determined by calculating the ratio of the light emitted by YFP over the light emitted by the RlucII. […] For the kinetics of GTPase and PI3K/Akt activation, cells were serum starved, pretreated with 21 (50 µM) or Wortmannin (200 nM) for 30 min, stimulated with ligand (100 nM AngII or 100 ng/ml EGF) and BRET signals were monitored at indicated times. […]"}, "RhoA": {"target": "T1, RhoA (Homo sapiens, UniProt P61586)", "T1 construct": "endogenous in cells; host or cells: HEK293SL", "T1 sequence (P61586 whole entry)": "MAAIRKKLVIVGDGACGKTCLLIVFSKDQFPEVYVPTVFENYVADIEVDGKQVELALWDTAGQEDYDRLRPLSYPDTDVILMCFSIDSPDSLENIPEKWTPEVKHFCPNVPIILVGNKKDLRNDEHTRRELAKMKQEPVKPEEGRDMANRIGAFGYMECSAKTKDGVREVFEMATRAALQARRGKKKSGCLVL", "assay": "GST-Rhotekin-RBD pull-down of AT1R-mediated RhoA activation", "details": "for Rho-GTP/Rho: GST-Rhotekin-RBD, listed as Comp 21", "protocol": "(§1) Activation of ARF1, ARF6, Ras, and Rho were assessed by using GST pull-down assays. HEK293SL cells were transiently transfected with 3 µg AT1R-flag only (Ras and Rho) or along with 500 ng HA-ARF6 (ARF6) or HA-ARF1 (ARF1). Forty-eight hours later, the HEK293 or MDA-MB-231 cells were serum-starved for 4 h with DMEM containing 20 mM HEPES then pretreated with DMSO or Rasarfin (50 µM) for 30 min. Cells were then stimulated with 1 µM AngII or 100 ng/ml EGF for 0 and 2 min. Cells were then washed once with ice-cold PBS and lysed for 30 min at 4 °C in 300 µl of lysis buffer (pH 7.5, 50 mM Tris-HCl, 140 mM NaCl, 5 mM MgCl2, 10% glycerol (v/v), 1% Nonidet P-40 (v/v), 1 mM dithiothreitol) supplemented with protease inhibitors (1 mM phenylmethyl-sulfonyl fluoride (PMSF), 10 µg/ml leupeptin, 5 µg/ml aprotinin, 1 µg/ml pepstatin A) and phosphatase inhibitors (20 mM NaF, 0.025 mM pervanadate). The samples were cleared by centrifugation and 30 µl (cell lysates) was kept for assessing total protein contents. The remaining was transferred to fresh tubes with 20 µg of either GST, GST-GGA3-PBD, GST-Raf1-RBD or GST-Rhotekin-RBD coupled to glutathione resin and rotated for 1–2 h at 4 °C. Beads were washed twice with lysis buffer and proteins were eluted in 25 μl 2x laemmli buffer by heating at 65 °C for 15 min. Proteins were resolved on 14% SDS-PAGE, transferred to nitrocellulose membranes, and immunoblotted for HA, Ras, RhoA, H-Ras, or ARF6. ImageLab 5.2 software was used to quantify the digital blots as fold of the amount of pulled down protein over total protein. Uncropped coomassie gels and immunoblots are provided in the Source Data file."}, "ARF6": {"target": "T2, ARF6 (Homo sapiens, UniProt P62330)", "T2 construct": "expressed in transfected cells; host or cells: HEK293SL", "T2 sequence (P62330 whole entry, species assumed)": "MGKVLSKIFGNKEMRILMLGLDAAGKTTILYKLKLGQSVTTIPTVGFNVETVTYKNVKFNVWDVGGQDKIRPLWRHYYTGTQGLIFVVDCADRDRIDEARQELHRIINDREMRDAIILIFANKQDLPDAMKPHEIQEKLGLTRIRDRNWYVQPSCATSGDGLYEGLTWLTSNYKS", "assay": "GST-GGA3-PBD pull-down of EGFR-mediated ARF6 activation in MDA-MB-231 cells", "details": "50 μM", "protocol": "as §1, with “Beads were washed twice with lysis buffer and proteins were eluted in 25 μl 2x laemmli buffer by heating at 65 °C for 15 min. Proteins were resolved on 14% SDS-PAGE, transferred to nitrocellulose membranes, and immunoblotted for HA, Ras, RhoA, H-Ras, or ARF6.” left out, “Uncropped coomassie gels and immunoblots are provided in the Source Data file.” left out"}}, "note": "“And” between values parts separate entries of the source, which are not always exact repeats. Equal entries are not always repeated.", "data": [{"smiles": "CC(C)C(=O)N1CCN(c2ccc(NC(=O)c3cc4ccccc4o3)cc2Cl)CC1", "note": "[Compound 21]", "values": [{"measurement": "AngII-mediated activation of WT K-Ras (Ras BRET sensor)", "setting": "K-Ras; 50 μM", "result": "only WT was significantly inhibited by Rasarfin"}, {"measurement": "AngII-promoted BRET", "setting": "K-Ras; Rasarfin 50 μM, K-Ras WT", "result": "0.0405 and 0.05833 and 0.04947 and 0.058"}, {"measurement": "AngII-promoted BRET, Mean Diff. DMSO - Rasarfin", "setting": "K-Ras; Rasarfin 50 μM, K-Ras WT, Bonferroni's multiple comparisons test", "result": 0.04859}, {"measurement": "pull-down of Rho-GTP by GST-Rhotekin-RBD from cells stimulated with AT1R", "setting": "RhoA; 50 μM", "result": "nor did it prevent the pull-down of Rho-GTP"}, {"measurement": "Rho-GTP/Rho", "setting": "RhoA; AngII", "result": "0.2491 and 0.2385 and 0.2151 and 0.2027"}, {"measurement": "Rho-GTP/Rho", "setting": "RhoA; Ctrl", "result": "0.1261 and 0.1465 and 0.07786 and 0.1043"}, {"measurement": "ARF6 activity in MDA-MB-231 cells (pull-down)", "setting": "ARF6", "result": "inhibited"}]}]}
